Assay: Growth inhibition in human NCI60 cells
Format: functional
Settings: for TGI: read-out: Log TGI (converted)

`COC(=O)CCC(=O)C1=C(C)/C(=C/c2[nH]c(-c3ccc[nH]3)cc2OC)N=C1C` gave a GI50 of 0.794 µM, an LC50 of 12.3 µM and a TGI of 3.24 µM.

Compound `COC(=O)CCCCC(=O)C1=C(C)/C(=C/c2[nH]c(-c3ccc[nH]3)cc2OC)N=C1C` has a GI50 of 0.646 µM, an LC50 of 6.46 µM and a TGI of 2.24 µM.

Compound `CCc1c(-c2ccc[nH]2)[nH]c(/C=C2\N=C(C)C(C(=O)CCCCC(=O)OC)=C2C)c1C` has a GI50 of 9.33 µM, an LC50 of 83.2 µM and a TGI of 33.9 µM.

`COC(=O)CCCCCCCCC(=O)C1=C(C)/C(=C/c2[nH]c(-c3ccc[nH]3)cc2OC)N=C1C` showed a GI50 of 16.2 µM, an LC50 of 95.5 µM and a TGI of 67.6 µM.

Work on `COc1cc(-c2ccc[nH]2)[nH]c1/C=C1\N=C(C)C(C(C)=O)=C1C` [PRODIGIOSIN5] yielded a GI50 of 0.708 µM, an LC50 of 89.1 µM and a TGI of 40.7 µM.

Compound `CCOC(=O)C1=C(C)/C(=C/c2[nH]c(-c3ccc[nH]3)cc2OC)N=C1C` [PRODIGIOSIN 4] has a GI50 of 0.0468 µM, an LC50 of 12.3 µM and a TGI of 1.1 µM.

`CCCCCC1=C/C(=C/c2[nH]c(-c3ccc[nH]3)cc2OC)N=C1C` [PRODIGIOSIN CHLORIDE] showed a GI50 of 0.0141 µM and a TGI of 2.09 µM.
